Reference: BigSolDB 2.1

Nc1cccc(Cl)c1C(=O)O
solubility (mole fraction)
Conditions | 278.15 K | 283.15 K | 288.15 K | 293.15 K | 298.15 K | 303.15 K | 308.15 K | 313.15 K | 318.15 K | 323.15 K
in NMP | 0.0744 | 0.0797 | 0.0873 | 0.0958 | 0.106 | 0.119 | 0.135 | 0.155 | 0.178 | 0.204
in acetonitrile | 0.00746 | 0.00991 | 0.0129 | 0.0166 | 0.0208 | 0.0259 | 0.0313 | 0.0377 | 0.045 | 0.0541
in cyclohexane | – | 4.1e-05 | 6e-05 | 8.7e-05 | 0.000115 | 0.000155 | 0.000205 | 0.000269 | 0.000344 | 0.000445
in ethanol | 0.0284 | 0.0346 | 0.0408 | 0.049 | 0.0584 | 0.0702 | 0.0831 | 0.1 | 0.119 | 0.141
in ethyl acetate | 0.0257 | 0.0303 | 0.036 | 0.0423 | 0.051 | 0.0612 | 0.0731 | 0.0867 | 0.103 | 0.122
in ethylene glycol | 0.0133 | 0.0175 | 0.0225 | 0.0283 | 0.0349 | 0.0423 | 0.0505 | 0.0601 | 0.071 | 0.0848
in isobutanol | 0.0106 | 0.0145 | 0.0189 | 0.0244 | 0.0308 | 0.0385 | 0.047 | 0.057 | 0.0677 | 0.0809
in isopropanol | 0.0195 | 0.0231 | 0.0276 | 0.0332 | 0.0399 | 0.0479 | 0.0571 | 0.0676 | 0.0819 | 0.0982
in n-butanol | 0.0172 | 0.0208 | 0.0248 | 0.03 | 0.0365 | 0.0439 | 0.053 | 0.0642 | 0.0786 | 0.0958
in n-heptanol | 0.00987 | 0.0135 | 0.0177 | 0.0225 | 0.0276 | 0.0338 | 0.0414 | 0.0507 | 0.0625 | 0.0776
in n-octanol | 0.00855 | 0.0118 | 0.0154 | 0.0194 | 0.0241 | 0.0301 | 0.0376 | 0.0476 | 0.0606 | 0.0753
in n-propanol | 0.0203 | 0.0248 | 0.0299 | 0.0353 | 0.0416 | 0.0498 | 0.0592 | 0.0718 | 0.0859 | 0.103
in toluene | 0.00446 | 0.00515 | 0.00616 | 0.0075 | 0.00924 | 0.0112 | 0.0133 | 0.0156 | 0.0179 | 0.0207
in water | 0.000571 | 0.000674 | 0.000801 | 0.000965 | 0.00116 | 0.0014 | 0.00169 | 0.00203 | 0.00247 | 0.00297
